In experiment [1] the test system is morphine crop. Also on record: species or system Papaver somniferum. The settings on record: in vivo.
Experiment [2] concerns morphine crop. Description: Example 29 field trial: methyl jasmonate, capsule/seed ratio and alkaloid assay.
Experiment [3] concerns morphine crop. Also on record: species or system Papaver somniferum. The settings on record: in vivo. The source holds these as a separate data set.

Results on 2 compounds are retold here after patent US8377851B2, “Method of altering the alkaloid composition in poppy plants” (priority 2004, dated 2013).

Where two headings read alike, the source gives them in different places.

Regarding `O=C(O)CN(CCN(CC(=O)O)CC(=O)O)CC(=O)O` [EDTA], in experiment [1], the “CAPSULE/SEED RATIO” value was found to be 0.590 c, the CODEINE kg/ha is listed as 0.790 b kg/ha, the MORPHINE kg/ha was found to be 32.97 a kg/ha and the ORIPAVINE kg/ha was determined as 0.618 c kg/ha. Besides, in experiment [1], the SEED kg/ha is listed as 1960 a kg/ha, the “STRAW CODEINE %” value is listed as 0.047 b %, the “STRAW MORPHINE %” value amounted to 1.98 a % and the “STRAW O'PAVINE %” value is listed as 0.036 b %. Besides, in experiment [1], the “STRAW THEBAINE %” value was determined as 0.139 c %, the STRAW kg/ha worked out at 1668 b kg/ha, the THEBAINE kg/ha was found to be 2.350 c kg/ha and the YIELD t/ha was determined as 3.63 ab t/ha.
With `CC/C=C\CC1C(=O)CCC1CC(=O)OC` (centres unmarked) [METHYL JASMONATE, methyl jasmonate], in experiment [2] (METHYL JAS .15 L/ha at EF), the “CAPSULE/SEED RATIO” value is given as 0.575 a, the “STRAW CODEINE” value is reported as 0.064 b %, the “STRAW MORPHINE” value is 2.04 a % and the “STRAW O'PAVINE” value was found to be 0.009 b %. Moreover, the “STRAW THEBAINE” value in experiment [2] (METHYL JAS .15 L/ha at EF) is recorded as 0.042 b %. For the same compound, in experiment [2] (METHYL JAS .15 L/ha at GCAPS), the “CAPSULE/SEED RATIO” value was 0.577 a, the “STRAW CODEINE” value came out at 0.044 c %, the “STRAW MORPHINE” value is recorded as 2.01 a % and the “STRAW O'PAVINE” value is listed as 0.005 c %. Also, in experiment [2] (METHYL JAS .15 L/ha at GCAPS), the “STRAW THEBAINE” value is on record as 0.033 c %. Moreover, in experiment [2] (METHYL JAS .3 L/ha at EF), the “CAPSULE/SEED RATIO” value stood at 0.581 a, the “STRAW CODEINE” value is 0.075 a %, the “STRAW MORPHINE” value is recorded as 2.09 a % and the “STRAW O'PAVINE” value worked out at 0.011 a %. The “STRAW THEBAINE” value in experiment [2] (METHYL JAS .3 L/ha at EF) stood at 0.051 a %. Besides, in experiment [2] (METHYL JAS .3 L/ha at GCAPS), the “CAPSULE/SEED RATIO” value is reported as 0.577 a, the “STRAW CODEINE” value is on record as 0.042 c %, the “STRAW MORPHINE” value was found to be 2.04 a % and the “STRAW O'PAVINE” value worked out at 0.004 c %. In addition, the “STRAW THEBAINE” value in experiment [2] (METHYL JAS .3 L/ha at GCAPS) was found to be 0.029 c %. In experiment [3], the “CAPSULE/SEED RATIO” value is 0.685 c, the CODEINE kg/ha was determined as 1.104 a kg/ha, the MORPHINE kg/ha is given as 19.99 b kg/ha and the ORIPAVINE kg/ha worked out at 7.853 c kg/ha. Moreover, in experiment [3], the SEED kg/ha was found to be 1886 bc kg/ha, the “STRAW CODEINE %” value was found to be 0.059 a %, the “STRAW MORPHINE %” value stood at 1.07 b % and the “STRAW O'PAVINE %” value worked out at 0.422 b %. Besides, in experiment [3], the “STRAW THEBAINE %” value is recorded as 1.028 c %, the STRAW kg/ha came to 1863 b kg/ha, the THEBAINE kg/ha is reported as 19.124 c kg/ha and the YIELD kg/ha was 3.75 a kg/ha.
